Results published in article PMC9623576, “Semisynthesis and Evaluation of Anti-Inflammatory Activity of the Cassane-Type Diterpenoid Taepeenin F and of Some Synthetic Intermediates” (Journal of Natural Products, 2022).

Key:
B16-F10 cells = assay: B16-F10 cell-cycle arrest and distribution, PI flow cytometry; type: cell-based, murine; details: B16-F10, 72 h
Method: The effects of the compounds 16 and 21 on the B16-F10 cell cycle were investigated using flow cytometry through propidium iodide staining. With this assay, we can determine a possible cytostatic effect related to the cytotoxic response and also measure DNA ploidy as well as alterations of cell-cycle profiles.[32]
The method used to quantify the amount of DNA in the different phases of the cell cycle (G0/G1, S, and G2/M) was performed by flow cytometry after propidium iodide staining (PI).[37] […] After treatment, the cells were washed twice with PBS, trypsinized, and resuspended in 1× TBS (10 mM Tris and 150 mM NaCl). After that, Vindelov buffer (100 mM Tris, 100 mM NaCl, 10 mg/mL Rnase, and 1 mg/mL PI, at pH 8) was added. Cells were stored on ice and, just before measurement, were stained with 20 μL of 1 mg/mL PI solution. Approximately, 10 × 10^3 cells were analyzed in each experiment. The experiments were performed three times with two replicates per assay. Finally, samples were analyzed using a flow cytometer, and the number of cells in each stage of the cell cycle was estimated by fluorescence-associated cell sorting (FACS) at 488 nm in an Epics XL flow cytometer (Coulter Corporation, Hialeah, FL, USA).

[1] = system: LPS-stimulated RAW 264.7 macrophage murine cells; assay: RAW 264.7 cell-cycle distribution, PI flow cytometry; type: cell-based; details: for effect on cell-cycle arrest induced by LPS: 72 h of treatment
Description: Since the anti-inflammatory effect can be related to the ability to change the inflammatory processes induced by LPS in RAW 264.7 cells, including monocyte/macrophage cell differentiation and cell-cycle arrest,[22] we analyzed the cell-cycle distribution in these cells in response to LPS and compounds 16 and 21. The two compounds with the highest antiproliferative and important NO inhibitory effects were selected for this assay. For this purpose, flow cytometry by propidium iodide (PI) staining was used to measure DNA ploidy as well as the distribution of cells in every phase of the cell cycle (Figure S2).
A stock solution was frozen and stored at […]. Before the experiments, this solution was diluted in cell-culture medium to the adequate concentrations for each experiment. For the antiproliferative assay in all cell lines, we determined the concentrations of compounds required for 20, 50, and 80% of inhibition cell growth, IC20, IC50, and IC80, concentrations, respectively, to analyze the complete range of cytotoxicity and to determine the graduated or acute response to these compounds. For nitrite assay, subcytotoxic concentrations (3/4IC50, 1/2IC50, and 1/4IC50), were used to ensure that the NO inhibitory potential was not due to a possible cytotoxic effect. The concentrations of 3/4IC50, 1/2IC50, and 1/4IC50 were used for the cell-cycle analysis. All experiments were measured and compared with control (untreated cells after 24, 48, or 72 h of treatment.)
Cellular subpopulations, with different DNA contents, were visualized, using a fluorescence-activated cell sorter (FACS) at 488 nm in an Epics XL flow cytometer (Coulter Corporation, Hialeah, FL, USA). Changes in DNA levels are characteristic of cell-cycle arrest and cell differentiation.[36] […] Several controls were analyzed in parallel. […] Data were analyzed to determine the percentage of cells in each cell-cycle phase (G0/G1, S, and G2/M).

## COC(=O)[C@]1(C)CCC[C@@]2(C)[C@H]1CC=C1C(C)=C(C(C)C)C(=O)C[C@@H]12 [Compound 16, (1R,4aR,10aR)-Methyl 7-isopropyl-1,4a,8-trimethyl-6-oxo-1,2,3,4,4a,4b,5,6,10,10a-decahydrophenanthrene-1-carboxylate]
B16-F10 cells; IC80 concentration
  cells in the G0/G1 phase: 76.36%
  cells in the S phase: 22.42%
  decrease of S phase cells compared to untreated control cells: 16.79%
  increase of G0/G1 cells over untreated control cells: 18.24%
[1]
  effect on cell-cycle arrest induced by LPS: could revert the cell-cycle arrest induced by LPS
[1]; LPS + compound, 72 h, 1/4IC50 to 3/4IC50, with respect to positive control
  proportion of cells in the S phase: 69%

## COC(=O)[C@]1(C)CCC[C@]2(C)c3cc(O)c(C=O)c(C)c3CC[C@@H]12 [Compound 21, (1R,4aS,10aR)-Methyl 7-formyl-6-hydroxy-1,4a,8-trimethyl-1,2,3,4,4a,9,10,10a-octahydrophenanthrene-1-carboxylate]
B16-F10 cells; IC50 concentration
  cells in the G0/G1 phase: 71.87%
  cells in the S phase: 27.95%
  decrease of S phase cells compared to untreated control cells: 11.26%
  increase of G0/G1 cells over untreated control cells: 13.75%
B16-F10 cells; IC80 concentration
  cells in the G0/G1 phase: 70.55%
  cells in the S phase: 29.45%
  decrease of S phase cells compared to untreated control cells: 9.76%
  increase of G0/G1 cells over untreated control cells: 12.43%
[1]
  effect on cell-cycle arrest induced by LPS: could revert the cell-cycle arrest induced by LPS
